Measured values: PubChem BioAssay (NCI)
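Five compound concentrations were applied to cells in 96-well plates for 48 hours; endpoints were derived by simple linear interpolation of the resulting dose-response curve. The concentration for 50% growth inhibition is given as GI50. The concentration for full growth arrest is given as TGI.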

How the values were obtained:
Experiment in all cases: DTP human tumour cell line panel, 48 h
HT29 colon = tested on: HT29 colon
NCI-H522 lung = tested on: NCI-H522 lung
A549 NSCLC = tested on: A549 NSCLC
T-47D breast = tested on: T-47D breast
SF-268 CNS = tested on: SF-268 CNS
SNB-75 CNS = tested on: SNB-75 CNS
MDA-MB-231 breast = tested on: MDA-MB-231 breast
SF-295 CNS = tested on: SF-295 CNS
TK-10 renal = tested on: TK-10 renal
HCT-15 colon = tested on: HCT-15 colon
PC-3 prostate = tested on: PC-3 prostate
SR leukemia = tested on: SR leukemia
K-562 leukemia = tested on: K-562 leukemia
SK-OV-3 ovarian = tested on: SK-OV-3 ovarian
MALME-3M melanoma = tested on: MALME-3M melanoma
SK-MEL-28 melanoma = tested on: SK-MEL-28 melanoma
HS 578T breast = tested on: HS 578T breast
COLO 205 colon = tested on: COLO 205 colon
HOP-62 NSCLC = tested on: HOP-62 NSCLC
786-0 renal = tested on: 786-0 renal
U251 CNS = tested on: U251 CNS
UACC-62 melanoma = tested on: UACC-62 melanoma
HCT-116 colon = tested on: HCT-116 colon
RXF 393 renal = tested on: RXF 393 renal
BT-549 breast = tested on: BT-549 breast
MDA-MB-435 = tested on: MDA-MB-435
NCI-H23 lung = tested on: NCI-H23 lung
CCRF-CEM leukemia = tested on: CCRF-CEM leukemia
HL-60(TB) leukemia = tested on: HL-60(TB) leukemia
SN12C renal = tested on: SN12C renal
NCI/ADR-RES ovarian = tested on: NCI/ADR-RES ovarian
LOX IMVI melanoma = tested on: LOX IMVI melanoma
HOP-92 NSCLC = tested on: HOP-92 NSCLC
CAKI-1 renal = tested on: CAKI-1 renal
MCF7 breast = tested on: MCF7 breast
SW-620 colon = tested on: SW-620 colon
SK-MEL-5 melanoma = tested on: SK-MEL-5 melanoma
EKVX NSCLC = tested on: EKVX NSCLC
UO-31 renal = tested on: UO-31 renal
SK-MEL-2 melanoma = tested on: SK-MEL-2 melanoma
NCI-H226 lung = tested on: NCI-H226 lung
ACHN renal = tested on: ACHN renal
NCI-H460 lung = tested on: NCI-H460 lung
OVCAR-5 ovarian = tested on: OVCAR-5 ovarian
OVCAR-4 ovarian = tested on: OVCAR-4 ovarian
RPMI-8226 leukemia = tested on: RPMI-8226 leukemia
MOLT-4 leukemia = tested on: MOLT-4 leukemia
OVCAR-3 ovarian = tested on: OVCAR-3 ovarian
DU-145 prostate = tested on: DU-145 prostate
KM12 colon = tested on: KM12 colon
A498 renal = tested on: A498 renal
HCC-2998 colon = tested on: HCC-2998 colon
UACC-257 melanoma = tested on: UACC-257 melanoma
SNB-19 CNS = tested on: SNB-19 CNS
SF-539 CNS = tested on: SF-539 CNS
IGROV1 ovarian = tested on: IGROV1 ovarian

## CCOC(=O)c1c(NC(=O)COc2cccc3cccnc23)sc(C(=O)N(C)C)c1C
HT29 colon
  GI50: 25.4 µM
  TGI: 61.6 µM
NCI-H522 lung
  GI50: 13.8 µM
  TGI: 30.3 µM
A549 NSCLC
  GI50: 18.5 µM
  TGI: 46.2 µM
T-47D breast
  GI50: 5.24 µM
  TGI: 27.8 µM
SF-268 CNS
  GI50: 22.4 µM
  TGI: 82 µM
SNB-75 CNS
  GI50: 19.1 µM
  TGI: 63.1 µM
MDA-MB-231 breast
  GI50: 23.7 µM
  TGI: > 100 µM
SF-295 CNS
  GI50: 13.5 µM
  TGI: 30.9 µM
TK-10 renal
  GI50: 41 µM
  TGI: > 100 µM
HCT-15 colon
  GI50: 18.5 µM
  TGI: 48.5 µM
PC-3 prostate
  GI50: 17.5 µM
  TGI: 63 µM
SR leukemia
  GI50: 31.6 µM
  TGI: 83.5 µM
K-562 leukemia
  GI50: 19.7 µM
  TGI: 48.9 µM
SK-OV-3 ovarian
  GI50: 36.2 µM
  TGI: > 100 µM
MALME-3M melanoma
  GI50: 20.1 µM
  TGI: 46.6 µM
SK-MEL-28 melanoma
  GI50: 16.9 µM
  TGI: 33.4 µM
HS 578T breast
  GI50: 15.5 µM
  TGI: 44.6 µM
COLO 205 colon
  GI50: 17.4 µM
  TGI: 55.5 µM
HOP-62 NSCLC
  GI50: 19.6 µM
  TGI: 58 µM
786-0 renal
  GI50: 20.7 µM
  TGI: 79.7 µM
U251 CNS
  GI50: 25.2 µM
  TGI: > 100 µM
UACC-62 melanoma
  GI50: 11.8 µM
  TGI: 27.9 µM
HCT-116 colon
  GI50: 14.6 µM
  TGI: 45.6 µM
RXF 393 renal
  GI50: 13 µM
  TGI: 34.2 µM
BT-549 breast
  GI50: 14.1 µM
  TGI: 32.4 µM
MDA-MB-435
  GI50: 16.1 µM
  TGI: 31.5 µM
NCI-H23 lung
  GI50: 14.7 µM
  TGI: 36.5 µM
CCRF-CEM leukemia
  GI50: 14.1 µM
  TGI: 82.3 µM
HL-60(TB) leukemia
  GI50: 18.1 µM
  TGI: 39.9 µM
SN12C renal
  GI50: 33.5 µM
  TGI: > 100 µM
NCI/ADR-RES ovarian
  GI50: 6 µM
  TGI: 34.3 µM
LOX IMVI melanoma
  GI50: 22 µM
  TGI: 55.1 µM
HOP-92 NSCLC
  GI50: 14.2 µM
  TGI: 55.1 µM
CAKI-1 renal
  GI50: 20.7 µM
  TGI: 77.6 µM
MCF7 breast
  GI50: 19 µM
  TGI: 42.5 µM
SW-620 colon
  GI50: 25.8 µM
  TGI: 72.4 µM
SK-MEL-5 melanoma
  GI50: 8.8 µM
  TGI: 21.1 µM
EKVX NSCLC
  GI50: 23 µM
  TGI: 61 µM
UO-31 renal
  GI50: 21.4 µM
  TGI: 55.6 µM
SK-MEL-2 melanoma
  GI50: 18.5 µM
  TGI: 45.5 µM
NCI-H226 lung
  GI50: 17.9 µM
  TGI: 50.1 µM
ACHN renal
  GI50: 24.1 µM
  TGI: 75.5 µM
NCI-H460 lung
  GI50: 13.6 µM
  TGI: 33.3 µM
OVCAR-5 ovarian
  GI50: 17.4 µM
  TGI: 37.3 µM
OVCAR-4 ovarian
  GI50: 22.1 µM
  TGI: 65.8 µM
RPMI-8226 leukemia
  GI50: 7.93 µM
  TGI: 36.8 µM
MOLT-4 leukemia
  GI50: 16.4 µM
  TGI: 44.3 µM
OVCAR-3 ovarian
  GI50: 20.8 µM
  TGI: 69.8 µM
DU-145 prostate
  GI50: 18.5 µM
  TGI: 39.2 µM
KM12 colon
  GI50: 15.7 µM
  TGI: 35.3 µM
A498 renal
  GI50: 26.6 µM
  TGI: 66.7 µM
HCC-2998 colon
  GI50: 17.2 µM
  TGI: 35.2 µM
UACC-257 melanoma
  GI50: 18.6 µM
  TGI: 48 µM
SNB-19 CNS
  GI50: 33.9 µM
  TGI: > 100 µM
SF-539 CNS
  GI50: 21.9 µM
  TGI: 48 µM
IGROV1 ovarian
  GI50: 16.7 µM
  TGI: 49.2 µM
